Experimental data taken from PMC9229927, “New Alk(en)ylhydroxycyclohexanes with Tyrosinase Inhibition Potential from Harpephyllum caffrum Bernh. Gum Exudate” (Molecules, 2022).

Molecular target: mushroom tyrosinase (Agaricus bisporus, UniProt C7FF04)
Type: biochemical
Method: Tyrosinase inhibitory potential of alk(en)ylhydroxycyclohexanes has not been previously reported.
Tyrosinase inhibitory activity was determined spectrophotometrically with slight modifications. Briefly, tested samples were dissolved in DMSO to a final concentration of 20 mg/mL. In a 24-well plate, 30 μL of the samples was added to 970 μL of potassium phosphate buffer (0.1 M, pH 6.5) and serially diluted two-fold. The mixture (70 μL) was transferred to a 96-well plate containing 30 μL of potassium phosphate buffer (0.1 M, pH 6.5) to obtain increasing concentration range of (1.56–200 μg/mL). Then, 30 μL of mushroom tyrosinase solution (333 Units/mL in phosphate buffer, pH 6.5) was added to each mixture, which was then incubated at 25 °C for 5 min. Thereafter, 110 µL of 2 mM L-tyrosine was added in all wells of a 96-well microtiter plate and further incubated for 30 min at 25 °C. […] The absorbance of the mixture was read at 492 nm using an ELISA microplate reader (VarioSkan Flash, Thermo Fisher Scientific, Vantaa, Finland). All experiments were performed in triplicates. The percent inhibition of tyrosinase was calculated as follows: Tyrosinase inhibitory (%)=(Ao−A1/Ao) × 100 where A0 is the absorbance of the negative control with the enzyme without test samples, A1 is the absorbance of the test samples and enzyme.
Data were expressed as mean ± SD from three independent experiments. The IC50 values, corresponding to the concentration required to inhibit 50% of tyrosinase activity, were calculated from a sigmoidal dose–response of a non-linear regression and R-square values representing the best fit of the model were determined by Pearson nonlinear regression using the GraphPad Prism 5 software (GraphPad Software, San Diego, CA, USA). A one-way ANOVA was performed and differences between means were separated using the Tukey multiple comparison test at p < 0.05. Experiments were performed in triplicate.

mushroom tyrosinase, sequence (C7FF04 1-392): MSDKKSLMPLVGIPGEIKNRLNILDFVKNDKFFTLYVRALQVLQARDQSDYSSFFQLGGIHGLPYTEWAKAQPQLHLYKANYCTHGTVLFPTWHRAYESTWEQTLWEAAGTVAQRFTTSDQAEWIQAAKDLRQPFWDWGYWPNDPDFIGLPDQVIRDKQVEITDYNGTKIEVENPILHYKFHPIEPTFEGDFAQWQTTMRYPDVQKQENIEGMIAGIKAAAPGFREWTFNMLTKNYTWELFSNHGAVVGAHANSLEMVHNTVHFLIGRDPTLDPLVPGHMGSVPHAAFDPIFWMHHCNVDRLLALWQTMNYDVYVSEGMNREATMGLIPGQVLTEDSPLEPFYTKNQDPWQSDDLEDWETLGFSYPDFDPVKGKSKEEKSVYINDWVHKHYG

| Structure (SMILES) | tyrosinase inhibition, rating in words |
| --- | --- |
| CCCC/C=C\CCCCCCCCCCCc1cccc(O)c1 [Compound 1, 3-heptadec-12′-Z-enyl phenol] | moderately active |
| CCCC/C=C\CCCCCCCCCCC[C@@]1(O)CCC[C@@H](O)C1 [Compound 2, (1R,3R)-1,3-dihydroxy-3-[heptadec-12′(Z)-enyl]cyclohexane] | good inhibition |
| CCCC/C=C\CCCCCCCCCCCC[C@@]1(O)C[C@@H](O)[C@H](O)[C@@H](O)[C@H]1O [Compound 3, (1S,2S,3S,4S,5R)-1,2,3,4,5-pentahydroxy-5-[octadec-13′(Z)-enyl]cyclohexane] | good inhibition |
| CCCC/C=C\CCCCCCCCCCC[C@]1(O)CC[C@@H](O)[C@H](O)C1 [Compound 4, (1R,2S,4R)-1,2,4-trihydroxy-4-[heptadec-12′(Z)-enyl]cyclohexane] | moderately active |
